Reference: a melting point compilation (Tetko et al.; mined from patent text by program, amines drawn as free bases though some values may be those of a salt)

| SMILES | melting point |
| --- | --- |
| COc1ccc(-c2cccc(-c3nc(C(C)C)[nH]c3-c3cccc(C)n3)c2)cn1 | 72 to 74 °C |
| Cc1cc(CN2CC(=O)N(c3cnn(Cc4c(C)noc4C)c3)C2=O)n(C)n1 | 145 to 146 °C |
| CCOC(=O)/C=C/c1cccc(C(F)(F)F)c1 | 40 to 41 °C |
| CCCCCCNc1nc(Cl)nc2c(SC)ncnc12 | 80 to 82 °C |
| COc1ccc(-c2ccncc2)cc1-c1cccc(Oc2ccccc2)c1 | 184 to 204 °C |
| CCN(c1cccc2cc(-c3ncc(COc4ccc(C(=O)O)cc4)s3)[nH]c12)S(=O)(=O)c1cccs1 | 188 °C |
| O=C1NC(=O)C(=Cc2cc(O)c(O)c([N+](=O)[O-])c2)N1 | > 350 °C |
| CC=CC(=O)c1ccc(CCCCNC(C)=O)cc1 | 64 to 66 °C |
| COc1cc(C)c(CCCCCCCCCC(=O)CCCCCCCCCCCC(=O)O)c(O)c1OC | 63 to 64 °C |
| CSc1nccc(-n2nnc3ccccc32)n1 | 180 to 182 °C |
| COc1ccc2sc(C(=O)O)c(OCc3ccccc3)c2c1 | 150 °C |
| COc1cc(OC)nc(Oc2nccc(-c3ccccc3)c2C(=O)O)n1 | 165 to 169 °C |
| CCC(C#N)CCn1nc(C(N)=O)c2ccccc21 (configuration not stated) | 178 to 180 °C |
| CC(C)(C)OC(=O)N=C(NC(=O)OC(C)(C)C)Nc1ccc2c(c1)Cc1cc(NC(=NC(=O)OC(C)(C)C)NC(=O)OC(C)(C)C)ccc1-2 | > 340 °C |
| Cc1cccc(C)c1CNc1c(NC(C)(C)C)c(=O)c1=O | 265 to 267 °C |
| C=CCc1c(OCC(O)CN2CCN(Cc3ccc(Cl)cc3)CC2)ccc2c(OCc3ccccc3)cc(=O)oc12 (configuration not stated) | 155 to 157 °C |
| CCOc1ccc(-c2nc(-c3cccc(C(=O)O)c3)cs2)cc1OCC | 192 to 193 °C |
| CC(=O)OC1CCC2(COS(=O)(=O)c3ccc(C)cc3)C(=CCC3C2CCC2(C)C(OC(C)=O)CCC32)C1 (configuration not stated) | 135 to 137 °C |
| CC(=Cc1ccc(Cl)cc1Cl)[N+](=O)[O-] | 75 °C |
| N#CC(C#N)C1(C#N)CCSc2ccccc21 (configuration not stated) | 136 to 137 °C |

| SMILES | melting point |
| --- | --- |
| O=[N+]([O-])c1ccc(NCc2ccccc2)c(F)c1 | 97.5 to 99 °C |
| FC(F)(F)c1cccc(CSc2nnc(-c3ncnc4[nH]ccc34)o2)c1 | 199 to 200 °C |
| CC(c1cccc(-c2c[nH]nn2)c1)C(O)(Cn1cncn1)c1ccc(F)cc1F (configuration not stated) | 168 to 170 °C |
| O=C(Nc1c[nH]nc1C(=O)NCCc1c[nH]c2ccccc12)c1ccccn1 | 250 to 251 °C |
| NC(=O)c1cc2c(-c3cccc(NC(=O)c4cccc(C(F)(F)F)c4)c3)ncnc2s1 | 275 to 278 °C |
| COc1cccc(-c2ccccc2CNC(=O)C(C)C)c1 | 103 to 105 °C |
| CCn1cc(-c2ccc(O)cc2)nc1SC | 218 °C |
| Fc1ccc(COc2ncc(F)c(NCOCc3ccccc3)n2)cc1 | 64 to 66 °C |
| Oc1ccc(C(O)(c2ccccc2)C(CCCCl)c2ccccc2)cc1 (configuration not stated) | 75 to 78 °C |
| Cc1cc2ccccc2n1-c1ccc(OCc2ccccc2)c(F)c1 | 70 to 71 °C |
| Oc1ccc(-c2ccc3c(Cl)c(O)ccc3n2)cc1 | 215 to 216 °C |
| CC(=O)OC1CCC2(C)C3=C(CCC2C1)C1CCC(C(C)=O)C1(C)CC3=O (configuration not stated) | 169 to 172 °C |
| NC(=O)N1c2ccccc2CC(=NO)c2ccccc21 | 230 to 232 °C |
| CN(C)c1ccc(OCC(=O)c2cccc(Cl)c2)cc1 | 69 to 70 °C |
| CCOC(=O)C(Cc1cc(Oc2c(Cl)cc(C(F)(F)F)cc2Cl)ccc1SC(F)(F)F)C(=O)OCC | 83 °C |
| CC(=O)C(=Cc1cc(O)c(O)c([N+](=O)[O-])c1)c1ccccc1 | 170 to 176 °C |
| O=C(O)[C@@H]1C[C@H]1c1ccc([N+](=O)[O-])cc1 (relative stereo) | 195 to 196 °C |
| Oc1ccc2c(c1)C(C(Cl)(Cl)Cl)OC(C(Cl)(Cl)Cl)O2 (configuration not stated) | 167 to 169 °C |
| CC(=O)OCC(OC(C)=O)C(OC(C)=O)C(OC(C)=O)C(C=O)OC(C)=O (configuration not stated) | 112 to 114 °C |
| COc1ccc(Cl)cc1C(=O)N(C)CCc1ccc(CCC(=O)O)cc1 | 152 to 153 °C |

| SMILES | melting point |
| --- | --- |
| COc1ccc(S(=O)(=O)N(CCO)c2cccc(F)c2/C=C/c2ccncc2)cc1 | 152 to 153 °C |
| OCCCCc1ccc(OCc2coc(/C=C/c3ccccc3)n2)cc1 | 90 to 91 °C |
| Cc1cc(C#N)ccc1-c1ccc(C=O)cc1 | 130 °C |
| COc1ccccc1C(C)NCC(=O)Nc1c(C(C)C)cccc1C(C)C (configuration not stated) | 68 to 70 °C |
| O=c1c(Cl)c(N2CCC(c3ccccc3)CC2)ccn1Cc1ccc(OC(F)(F)F)cc1 | 169 °C |
| C#CCn1c(=O)sc2cc(F)c(-n3c(=O)cc(C(F)(F)F)[nH]c3=O)cc21 | 224 to 227 °C |
| Cc1ccc(F)cc1C(=O)Nc1ccc(C(=O)N2Cc3cccn3Cc3ccccc32)c(Cl)c1 | 191 to 195 °C |
| COc1ccc(C(=O)Nc2ccc3ccc(CO)nc3n2)cc1 | 212 °C |
| O=C(/C=C/c1ccc(C(F)(F)F)cc1-c1cccnc1)Nc1cnc2ccccc2c1 | 196 to 199 °C |
| Fc1ccc2c(CN3CCN(c4ccc(Cl)cc4)CC3)n[nH]c2c1 | 217 to 219 °C |
| COc1ccc(CC(=O)NC(NC(=NC#N)Nc2cccc3ncccc23)C(C)(C)C)cc1OC (configuration not stated) | 128 to 129 °C |
| Fc1ccc(-n2ccc3cc(OCCCCCCCBr)ccc32)cc1 | 63 to 65 °C |
| CCOC(=O)C(=O)CC(=O)c1cn(Cc2ccc(F)cc2)c2ccc(F)cc2c1=O | 152 to 153 °C |
| CSc1ccccc1C(=O)Nc1ccccc1 | 148 to 149 °C |
| CCCCc1ncc(CO)n1Cc1ccc(OCc2ccccc2C(=O)O)cc1 | 115 to 116 °C |
| COc1ccc(-c2nc(C(N)=O)sc2-c2ccc(OC)cc2)cc1 | 160 to 162 °C |
| CC(=O)Cc1ccc(CC2SC(=O)NC2=O)cc1 (configuration not stated) | 133 to 135 °C |
| COC(=O)COc1ccc(-c2ccc(C(=O)OCc3ccccc3)cc2)cc1-c1ccc2c(c1)C(C)(C)CCC2(C)C | 104 to 106 °C |
| CCOC(=O)c1cc(O)c2c(n1)c(C)cc1c(O)cc(C(=O)OCC)nc12 | 198 to 200 °C |
| COc1nc(Cl)nc(N)c1-c1ccccc1 | 213 °C |

Continued, values first:

| melting point | SMILES |
| --- | --- |
| 145 to 146 °C | COc1ccc(SC2CC(=O)N2)cc1OC (configuration not stated) |
| 185 to 189 °C | COc1ccc(-c2cc(=Nc3c(C)cc(C)cc3C)n(C)c(N3CCNCC3)n2)cc1OC |
| 153 to 155 °C | Nc1cc(C(=O)O)c(Cl)cc1F |
| 105 to 106 °C | COc1cccc(C(=O)N2CCCC(=O)c3ccc(Cl)cc3CCC2=O)c1 |
| 193 to 194 °C | Cc1nc(Cc2ccccc2)c2c(c1O)COC(C(C)C)OC2 (configuration not stated) |
| 177 to 179 °C | Nc1ccc(CC(=O)N2CCC(c3[nH]nc4c3C(=O)c3c(NC(=O)NN5CCOCC5)cccc3-4)CC2)cc1 |
| 122 to 123 °C | C=Cc1c(N)nc(-c2ccc(C)cc2)nc1C(=O)OC |
| 113 to 116 °C | Cc1cccc(NC(=O)CN2CCN(c3ncccn3)CC2)c1 |
| 111 to 113 °C | CC(C)(C)OC(=O)NCc1cccc(C2CCN(C(=O)c3ccc(C#Cc4ccccc4F)o3)CC2)c1 |
| 178 to 182 °C | Cc1ccc(-c2cnc(N)c(C(=O)Nc3cccnc3)n2)cc1C |
| 191 to 192 °C | Cc1ccc(-c2nc(C)c(-c3ccnc(Nc4ccc(N5CCOCC5)cc4)n3)s2)c(C)c1 |
| 223 to 224 °C | COc1cc2c(cc1OC)C(=O)CS[C@@H](C(=O)O)C2 |
| 92 to 95 °C | C#CCN1C(=O)CCc2cc(Cl)cc(Cl)c21 |
| 173 °C | C#CCOC1(Nc2cccc(OCC3CO3)c2)N=CC(Br)=CN1 (configuration not stated) |
| 95 to 96 °C | C#CCON=C(CCC)C1=C(O)CC(c2ccc(C(=O)SC)cc2)CC1=O (configuration not stated) |
| 133 to 135 °C | CC(C)CN1CN(C)CN(c2c(Cl)cccc2Cl)C1=S |
| 105 to 110 °C | COC(=O)c1c(C)c(O)cc(OC)c1Br |
| 113 °C | CCN(CC)C(=O)c1cc2ccccc2c(-c2ccc(C)cc2)n1 |
| 180 °C | Cc1c(SCCN2CCc3ccccc3C2)ccnc1CSc1nc2ncccc2[nH]1 |
| 113 °C | CNC(=S)NC1CCCc2cc(C)cnc21 (configuration not stated) |
| 145 to 146 °C | Cc1ccc(C)c(NC(=O)CCl)c1C |

| melting point | SMILES |
| --- | --- |
| 148 °C | CCc1cc2[nH]c(=O)oc2cc1NCC1CCCOC1 (configuration not stated) |
| 75 to 78 °C | Fc1cc(Br)c2ncccc2c1 |
| 208 °C | O=C(Nc1ccc(C[C@H](NS(=O)(=O)N2CCCCC2)C(=O)O)cc1)c1c(Cl)cncc1Cl |
| 163 to 164 °C | O=C1C2CC(c3ccc([N+](=O)[O-])cc3)(C2)C(=O)N1C1CCCCC1 |
| 68 °C | Cc1c(C=O)cccc1C(=O)c1ccc(Cl)cc1 |
| 210 to 211 °C | COC(=O)c1c(C)[nH]c(-c2ccncn2)c1C(=O)OC |
| 85 °C | CCOc1cc(C2(C)CNC(=O)O2)ccc1OC (configuration not stated) |
| 143 to 144 °C | CCOC(=O)CNc1ncccc1NC(=O)c1cccc(Cl)c1 |
| 115 to 116 °C | CC(C)CC(C(=O)O)c1cc(Cl)c(-c2ccc(C(F)(F)F)cc2)c(OCC2CC2)c1 (configuration not stated) |
| 200 to 202 °C | CCNC1CCN(c2cccc(-c3cnc4[nH]cc(C(=O)C(C)(C)C)c4n3)c2)C1 (configuration not stated) |
| 127 to 129 °C | CS(=O)c1ccc(S(=O)(=O)N2CCCC2=O)cc1 (configuration not stated) |
| 208 to 210 °C | Clc1cccc(/C=C/C2=CCN(Cc3c[nH]c4ncccc34)CC2)c1 |
| 113 to 115 °C | COc1ccc2c(c1)Oc1ccc(Cl)cc1NC2 |
| 54 to 55 °C | Cc1cc(C)c(CON)c(C)c1 |
| 112 to 115 °C | Cc1ncc(-c2ccc([C@H](C)N3CC[C@](CC(C)(C)O)(c4ccccc4)OC3=O)cc2)cn1 |
| 173 °C | COC(=O)Cc1cc(C(=O)c2ccc(F)cc2)ccc1O |
| 158 to 159 °C | O=C(C1=C(O)C(=O)N(C2CC2)C1)c1ccc(Cc2ccc(F)cc2)o1 |
| 63 to 68 °C | CC1(C)CC(c2cccc(C(F)(F)F)c2)c2ccc(O)cc2O1 (configuration not stated) |
| 77 to 78 °C | Clc1ccc(CO[C@H]2CO[C@@H](c3ccccc3)OC2)cc1Cl |
| 107 to 115 °C | Cc1[nH]c(C=O)c(C)c1C(=O)NCC1CCCCN1 (configuration not stated) |
| 136 to 137 °C | COc1nc(C)nc(NC(=O)NS(=O)(=O)C(C)S(=O)(=O)N2CCCC2)n1 (configuration not stated) |
